# Measured values: PMC11796312, “Multifunctional, Fluorene‐Based Modulator of Cholinergic and GABAergic Neurotransmission as a Novel Drug Candidate for Palliative Treatment of Alzheimer's Disease” (Angewandte Chemie (International Ed. in English), 2024)
# Entries after “also recorded” stand apart in the source; their conditions may differ. Like-named read-outs stand apart in the source and are kept apart here.
# What was measured:
# [1] = tested on: hGAT‐3; details: cited from earlier work
# [2] = molecular target: T1, human butyrylcholinesterase (hBuChE) (Homo sapiens, UniProt P06276); experiment: biochemical; details: inhibitor concentration 1 μM; read-out: hBuChE % inh.
# T1 construct: from human plasma was from Vivonics (Bedford, MA, USA); purchased Vivonics (Bedford, MA, USA); host or cells: human plasma
# [3] = tested on: mice treated with scopolamine; experiment: Passive avoidance (PA) task, scopolamine-induced amnesia; type: in vivo; details: mouse, in vivo
# Description: Animals and housing conditions
# In all pharmacodynamic in vivo experiments, except for the Barnes maze (BM) task, adult male Albino Swiss (CD-1) mice weighing between 18 and 22 g and purchased from the Animal Breeding Farm of the Faculty of Pharmacy, Jagiellonian University Medical College were used. In BM task, C57BL/6J mice of the same weight (Animalab, Poland) were used.
# Animals were housed in cages (10 mice per cage) at a constant temperature of 22 ± 2 °C, humidity of 55 ± 10%, and a light/dark (12:12) cycle (lights on at 7 AM). Before the experiments, the animals had unlimited access to food and water. Specified conditions for the maintenance of mice were ensured throughout the experiments, including tree bedding (Transwior, Poland) and cage enrichment (tunnels, nesting material, wooden igloos, etc.). […]
# doses for behavioral assays. Lower doses were also assessed if at least one of them was […]
# On the first day, during the acquisition trial (a conditioning phase), the test compound 6, scopolamine, and vehicle were injected. […] The latency between opening the guillotine gate and the mouse entering the black compartment was measured for each mouse. On the next day, during the retention (drug-off) trial, the mice were placed again into the white compartment for a 30-s habituation period, and the latency to enter the black compartment was measured for each mouse. […]
# [4] = tested on: BuChE; details: 1 or 5 µM compound (printed '1 or 5 M'), vs DMSO
# T1 sequence (P06276 29-602): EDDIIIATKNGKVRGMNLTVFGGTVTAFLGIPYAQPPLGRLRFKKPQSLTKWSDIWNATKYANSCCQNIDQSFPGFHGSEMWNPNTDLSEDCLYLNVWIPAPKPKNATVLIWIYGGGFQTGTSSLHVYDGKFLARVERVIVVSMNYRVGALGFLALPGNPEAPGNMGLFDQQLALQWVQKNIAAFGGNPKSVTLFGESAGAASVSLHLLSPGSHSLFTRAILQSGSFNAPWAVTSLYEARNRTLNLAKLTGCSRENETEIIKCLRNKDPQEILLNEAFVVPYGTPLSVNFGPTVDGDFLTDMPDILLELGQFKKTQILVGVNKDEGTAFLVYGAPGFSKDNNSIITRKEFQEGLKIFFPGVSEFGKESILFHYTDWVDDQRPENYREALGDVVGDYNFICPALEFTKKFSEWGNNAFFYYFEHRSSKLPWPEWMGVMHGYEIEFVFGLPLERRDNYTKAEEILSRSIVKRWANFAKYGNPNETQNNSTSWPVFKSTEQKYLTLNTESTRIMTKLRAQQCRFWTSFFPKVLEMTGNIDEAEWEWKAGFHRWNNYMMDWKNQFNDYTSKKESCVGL
structure (smiles),measurement,setting,value
"COc1ccc(C(OCCN2CCC[C@H](C(=O)O)C2)(c2ccc(OC)cc2)c2ccc(OC)cc2)cc1 [(S)‐SNAP‐5114, reference compound]",IC50,[1],45 µM
O=C(CC(c1ccccc1)c1ccccc1)N[C@@H](Cc1ccccc1)[C@@H](O)CNCc1ccccc1 [Compound I],inhibition at 1 µM,[2],67.7%
same,pro-cognitive effect in passive avoidance task,[3],did not observe pro‐cognitive effects; also recorded: non active
same,IC50,[1]; earlier screening,3 µM
"Nc1c2c(nc3ccccc13)CCCC2 [Tacrine, reference compound]",Melting temperature (Tm) of BuChE,[4],increased Tm of BuChE
